# Values quoted from earlier work in patent publication US20150335679A1, “Methods and Compositions for Treating Malignancies with Dendritic Cells” (Kiromic, LLC, priority 2014, published 2015).
# Where two headings read alike, the source gives them in different places.
# What was measured:
# [1] = tested on: Treg; settings: low-dose
# [2] = tested on: Tregs
# [3] = tested on: advanced solid tumors
# [4] = tested on: Tregs; breast tumor-reactive T cells
# [5] = 50 mg orally daily for 3 months
smiles,measurement,setting,value
"O=P1(N(CCCl)CCCl)NCCCO1 (stereo not drawn) [CYP, cyclophosphamide]",Treg number and functionality,[1],decreases
same,Treg suppressor function,[2]; 250 mg/m^2,impaired suppressor function
same,duration of decreased Treg frequency,[2]; 250 mg/m^2,decreased Treg frequency up to day 71
same,Alpha-fetoprotein-specific T-cell responses,[2]; lower treatment arms,induced
same,absolute and relative frequency of Tregs in the blood of patients,"[2]; the two lower doses (150, 250 mg/m^2)",induced a decrease
same,rates of disease control,"[3]; all CYP regimens (oral 50 mg/day, single i.v. 1,000 mg, or both) vs adenovirus only",higher rates of disease control
same,decrease of Treg numbers,[3]; metronomic groups,most effective in decreasing Treg numbers
same,course of Tregs,[4]; [5],"remained decreased until day 42, returning to pretreatment levels by day 84"
same,time to reduction of Tregs,[4]; [5],≤ 14 days
same,patients with endogenous breast tumor-reactive T cells,"[4]; day 14, 27% before CYP treatment",73%
same,patients with endogenous breast tumor-reactive T cells,[4]; day 42,80%
same,patients with endogenous breast tumor-reactive T cells,[4]; day 84,88%
